Laboratory results from patent US9101638B2, “Boronic acid derivatives and therapeutic uses thereof” (Rempex Pharmaceuticals, Inc., priority 2013, dated 2015).

Tests used:
[1] = tested on: KP1005 (CTX-M-14); assay: Potentiation of aztreonam, strain KP1005; assay type: cell-based
[2] = tested on: KP1009 (CTX-M-15); assay: Potentiation of aztreonam, strain KP1009; assay type: cell-based
[3] = tested on: ec302 (TEM-10); assay: Potentiation of aztreonam, strain ec302; assay type: cell-based
[4] = tested on: KP1004 (K-2); assay: Potentiation of aztreonam, strain KP1004; assay type: cell-based; conditions: minimum BLI concentration inhibiting growth with 4 μg/mL aztreonam
[5] = tested on: ECL1002; assay: Potentiation of aztreonam, strain ECL1002; assay type: cell-based; conditions: minimum BLI concentration inhibiting growth with 4 μg/mL aztreonam
[6] = tested on: ec308 (SHV-5); assay: Potentiation of tigemonam, strain ec308; assay type: cell-based; conditions: minimum BLI concentration inhibiting growth with 4 μg/mL tigemonam
[7] = molecular target: P99 (Enterobacter cloacae, UniProt P05364); assay: Inhibition of nitrocefin cleavage by purified P99; assay type: biochemical; conditions: nitrocefin reporter substrate, purified enzyme; read-out: Ki (P99, NCF)
Sequence of P99 (P05364 21-381): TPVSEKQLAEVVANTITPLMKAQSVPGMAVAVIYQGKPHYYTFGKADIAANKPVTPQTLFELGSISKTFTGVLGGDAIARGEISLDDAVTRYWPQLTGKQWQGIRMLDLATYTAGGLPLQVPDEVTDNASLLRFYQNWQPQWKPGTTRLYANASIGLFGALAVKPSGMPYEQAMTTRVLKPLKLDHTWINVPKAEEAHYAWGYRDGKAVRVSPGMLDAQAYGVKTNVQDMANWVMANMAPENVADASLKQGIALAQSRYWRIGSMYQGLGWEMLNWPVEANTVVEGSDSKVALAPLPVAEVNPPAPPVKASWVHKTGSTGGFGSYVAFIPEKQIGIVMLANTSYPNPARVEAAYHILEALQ
Experimental: (§1) Purified enzymes were mixed with various concentrations of inhibitors in reaction buffer and incubated for 10 min at room temperature. Nitrocefin was added and substrate cleavage profiles were recorded at 490 nm every 10 sec for 10 min.

[8] = molecular target: OXA-48 (Klebsiella pneumoniae, UniProt Q6XEC0); assay: Inhibition of nitrocefin cleavage by purified OXA-48; assay type: biochemical; conditions: nitrocefin reporter substrate, purified enzyme; read-out: Ki (OXA-48, NCF)
Sequence of OXA-48 (Q6XEC0 23-265 limits assumed): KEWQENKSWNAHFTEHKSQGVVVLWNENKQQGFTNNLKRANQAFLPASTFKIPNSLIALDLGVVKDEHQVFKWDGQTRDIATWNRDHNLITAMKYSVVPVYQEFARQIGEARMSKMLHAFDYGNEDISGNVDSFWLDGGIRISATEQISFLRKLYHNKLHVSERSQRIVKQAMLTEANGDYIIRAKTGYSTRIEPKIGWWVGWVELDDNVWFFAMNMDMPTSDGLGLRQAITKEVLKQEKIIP
Procedure, shortened: (§2)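 Steps: enzyme plus inhibitor dilutions in reaction buffer; 10 min at room temperature; add nitrocefin; read absorbance at 490 nm each 10 sec for 10 min.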

[9] = molecular target: T1, Trypsin (Bos taurus, UniProt P00760); assay: Serine protease inhibition: trypsin; assay type: biochemical, mammalian; conditions: Table 8A, class symbols; read-out: IC50 Trypsin
T1 construct: purchased Calbiochem 6502
T1 sequence (P00760 24-246): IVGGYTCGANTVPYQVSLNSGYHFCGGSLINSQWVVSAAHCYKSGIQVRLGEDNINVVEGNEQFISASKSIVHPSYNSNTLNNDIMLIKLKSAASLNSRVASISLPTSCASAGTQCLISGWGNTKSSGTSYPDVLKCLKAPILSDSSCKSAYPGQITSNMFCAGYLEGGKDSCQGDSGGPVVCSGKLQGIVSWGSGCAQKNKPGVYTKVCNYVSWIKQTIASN
Experimental: (§3) The effect of selected BLIs on the enzymatic activity of some common mammalian serine proteases was evaluated.
(§4) 50 μl of the diluted enzyme was mixed with 50 μl of inhibitor at various concentrations and 50 μl of corresponding buffer (Table 7). Reaction mixtures were incubated for 10 min at 37° C. Subsequently, 50 μl of corresponding substrate (Table 7) was added and absorbance or fluorescence was monitored for 30 min on SpectraMax M2 plate reader (Molecular Devices). 4-(2-Aminoethyl)benzenesulfonyl fluoride hydrochloride (AEBSF) and leupeptin were used as positive controls. Rates of reaction were calculated and presented relative to “no treatment” control.

[10] = molecular target: T2, Chymotrypsin (Bos taurus, UniProt P00766); assay: Serine protease inhibition: chymotrypsin; assay type: biochemical, mammalian; conditions: Table 8A, class symbols; read-out: IC50 Chymotrypsin
T2 construct: purchased Calbiochem 230832
Experimental: as §3, §4

[11] = molecular target: T3, Plasmin (Homo sapiens, UniProt P00747); assay: Serine protease inhibition: plasmin; assay type: biochemical, mammalian; conditions: Table 8A, class symbols; read-out: IC50 Plasmin
T3 construct: Plasmin; MPBio; 19419890; purchased MPBio 19419890
T3 sequence (P00747 581-810 limits assumed, species assumed): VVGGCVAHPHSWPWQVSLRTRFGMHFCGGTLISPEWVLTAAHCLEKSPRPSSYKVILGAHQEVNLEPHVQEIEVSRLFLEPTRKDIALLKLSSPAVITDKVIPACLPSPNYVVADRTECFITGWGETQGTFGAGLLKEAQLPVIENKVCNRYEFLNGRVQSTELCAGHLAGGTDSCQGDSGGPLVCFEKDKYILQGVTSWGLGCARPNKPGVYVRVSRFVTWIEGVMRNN
T3 sequence (P00747 97-580 partner limits assumed, species assumed): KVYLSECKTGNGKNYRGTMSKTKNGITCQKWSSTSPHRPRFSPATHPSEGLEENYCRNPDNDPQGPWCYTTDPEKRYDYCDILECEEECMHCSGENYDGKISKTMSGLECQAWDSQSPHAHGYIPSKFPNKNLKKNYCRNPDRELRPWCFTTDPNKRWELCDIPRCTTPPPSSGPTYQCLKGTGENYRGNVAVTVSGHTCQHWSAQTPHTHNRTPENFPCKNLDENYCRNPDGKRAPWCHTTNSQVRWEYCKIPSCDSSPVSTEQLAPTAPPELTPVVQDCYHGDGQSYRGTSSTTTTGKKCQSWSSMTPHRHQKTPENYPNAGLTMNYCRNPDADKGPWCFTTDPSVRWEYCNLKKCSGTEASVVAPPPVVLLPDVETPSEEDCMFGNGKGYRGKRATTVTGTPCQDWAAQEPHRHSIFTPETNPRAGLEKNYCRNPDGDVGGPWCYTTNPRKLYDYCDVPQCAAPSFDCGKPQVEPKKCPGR
Experimental: as §3, §4

[12] = molecular target: T4, Elastase (Sus scrofa, UniProt P00772); assay: Serine protease inhibition: elastase; assay type: biochemical, mammalian; conditions: Table 8A, class symbols; read-out: IC50 Elastase
T4 construct: purchased Calbiochem 324682
T4 sequence (P00772 27-266): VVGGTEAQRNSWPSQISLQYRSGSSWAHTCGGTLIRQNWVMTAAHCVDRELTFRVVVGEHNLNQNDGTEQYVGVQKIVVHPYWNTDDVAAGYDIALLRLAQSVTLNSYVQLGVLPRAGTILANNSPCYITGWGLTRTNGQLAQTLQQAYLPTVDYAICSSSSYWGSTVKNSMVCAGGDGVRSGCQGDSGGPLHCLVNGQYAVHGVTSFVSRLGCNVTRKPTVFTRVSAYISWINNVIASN
Experimental: as §3, §4

[13] = molecular target: T5, Urokinase (Homo sapiens, UniProt P00749); assay: Serine protease inhibition: urokinase; assay type: biochemical, mammalian; conditions: Table 8A, class symbols; read-out: IC50 Urokinase
T5 construct: purchased Calbiochem 672112
Experimental: as §3, §4

[14] = molecular target: T6, HtrA2 (Homo sapiens, UniProt O43464); assay: Serine protease inhibition: HtrA2; assay type: biochemical, mammalian; conditions: Table 8B; read-out: IC50 HtrA2
T6 sequence (O43464 134-458): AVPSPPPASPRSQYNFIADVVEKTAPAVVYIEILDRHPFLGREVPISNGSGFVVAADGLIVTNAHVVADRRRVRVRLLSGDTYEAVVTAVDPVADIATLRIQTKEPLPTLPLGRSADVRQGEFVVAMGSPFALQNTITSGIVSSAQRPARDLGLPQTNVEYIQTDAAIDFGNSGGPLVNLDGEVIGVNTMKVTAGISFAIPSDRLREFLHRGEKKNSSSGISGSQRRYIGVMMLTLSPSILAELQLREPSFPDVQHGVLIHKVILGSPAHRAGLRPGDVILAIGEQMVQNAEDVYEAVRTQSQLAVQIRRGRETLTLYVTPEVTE
Experimental: as §3, §4

[15] = tested on: EC1010 (CMY-6); assay: Potentiation of aztreonam, strain EC1010; assay type: cell-based
[16] = tested on: ec302 (TEM-10); assay: Potentiation of tigemonam, strain ec302; assay type: cell-based
[17] = molecular target: CTX-M-14 (Escherichia coli, UniProt Q9L5C7); assay: Inhibition of nitrocefin cleavage by purified CTX-M-14; assay type: biochemical; conditions: nitrocefin reporter substrate, purified enzyme; read-out: Ki (CTX-M-14, NCF)
Sequence of CTX-M-14 (Q9L5C7 entry or part of it): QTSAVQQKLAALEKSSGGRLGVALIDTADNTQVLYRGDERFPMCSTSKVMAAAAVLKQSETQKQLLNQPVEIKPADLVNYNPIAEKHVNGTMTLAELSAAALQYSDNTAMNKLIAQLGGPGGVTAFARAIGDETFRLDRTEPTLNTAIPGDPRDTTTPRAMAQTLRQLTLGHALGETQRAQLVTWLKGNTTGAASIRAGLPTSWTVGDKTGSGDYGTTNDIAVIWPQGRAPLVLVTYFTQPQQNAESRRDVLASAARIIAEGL
Procedure, shortened: as §2

[18] = molecular target: CMY-2 (Klebsiella pneumoniae, UniProt Q48434); assay: Inhibition of nitrocefin cleavage by purified CMY-2; assay type: biochemical; conditions: nitrocefin reporter substrate, purified enzyme; read-out: Ki (CMY-2, NCF)
Sequence of CMY-2 (Q48434 21-381, species assumed): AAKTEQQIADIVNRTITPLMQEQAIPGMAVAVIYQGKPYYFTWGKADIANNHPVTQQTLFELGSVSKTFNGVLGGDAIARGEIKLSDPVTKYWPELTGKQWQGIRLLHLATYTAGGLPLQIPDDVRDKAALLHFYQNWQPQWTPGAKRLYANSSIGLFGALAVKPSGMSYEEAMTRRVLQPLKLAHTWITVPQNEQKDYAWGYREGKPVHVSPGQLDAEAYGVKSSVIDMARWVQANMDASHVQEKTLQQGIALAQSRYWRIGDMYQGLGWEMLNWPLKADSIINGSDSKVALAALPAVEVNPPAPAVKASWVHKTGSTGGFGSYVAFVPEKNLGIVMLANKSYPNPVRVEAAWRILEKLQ
Experimental: as §1

Row | Compound | AZT MPC4 CTX-M-14 KP1005 [1] | AZT MPC4 CTX-M-15 KP1009 [2] | AZT MPC4 TEM-10 ec302 [3] | AZT MPC4 K-2 KP1004 [4] | AZT MPC4 ECL1002 [5] | TIG MPC4 SHV-5 ec308 [6] | Ki [7] [nM] | Ki [8] [nM] | IC50 [9] [µM] | IC50 [10] [µM] | IC50 [11] [µM] | IC50 [12] [µM] | IC50 [13] [µM] | IC50 [14] [µM] | AZT MPC4 CMY-6 EC1010 [15] | TIG MPC4 TEM-10 ec302 [16] | Ki [17] [nM] | Ki [18] [nM]
1 | O=C(CSC(F)F)N[C@H]1Cc2cccc(C(=O)O)c2OB1O [Compound 3, (R)-3-(2-(difluoromethylthio)acetamido)-2-hydroxy-3,4-dihydro-2H-benzo[e][1,2]oxaborinine-8-carboxylic acid] | X (key: X = MIC of less than 1 μg/mL; Y = MIC of 1 μg/mL to 10 μg/mL; Z = MIC of greater than 10 μg/mL) | Y (key: X = MIC of less than 1 μg/mL; Y = MIC of 1 μg/mL to 10 μg/mL; Z = MIC of greater than 10 μg/mL) | Y (key: X = MIC of less than 1 μg/mL; Y = MIC of 1 μg/mL to 10 μg/mL; Z = MIC of greater than 10 μg/mL) | Y (Y = MIC of 1 μg/mL to 10 μg/mL) | Y (Y = MIC of 1 μg/mL to 10 μg/mL) | X (X = MIC of less than 1 μg/mL) | < 1 | < 1 | > 800 | > 800 | > 800 | > 800 | > 800 | > 500 | – | – | – | –
2 | Nc1nnc(SCC(=O)N[C@H]2Cc3cccc(C(=O)O)c3OB2O)s1 [Compound 5, (R)-3-(2-(5-amino-1,3,4-thiadiazol-2-ylthio)acetamido)-2-hydroxy-3,4-dihydro-2H-benzo[e][1,2]oxaborinine-8-carboxylic acid] | X (key: X = MIC of less than 1 μg/mL; Y = MIC of 1 μg/mL to 10 μg/mL; Z = MIC of greater than 10 μg/mL) | X (key: X = MIC of less than 1 μg/mL; Y = MIC of 1 μg/mL to 10 μg/mL; Z = MIC of greater than 10 μg/mL) | Y (key: X = MIC of less than 1 μg/mL; Y = MIC of 1 μg/mL to 10 μg/mL; Z = MIC of greater than 10 μg/mL) | Y (Y = MIC of 1 μg/mL to 10 μg/mL) | Y (Y = MIC of 1 μg/mL to 10 μg/mL) | Y (Y = MIC of 1 μg/mL to 10 μg/mL) | – | – | > 800 | > 800 | > 800 | > 800 | > 800 | > 500 | X (key: X = MIC of less than 1 μg/mL; Y = MIC of 1 μg/mL to 10 μg/mL; Z = MIC of greater than 10 μg/mL) | Y (key: X = MIC of less than 1 μg/mL; Y = MIC of 1 μg/mL to 10 μg/mL; Z = MIC of greater than 10 μg/mL) | 1 to 10 | –
3 | O=C(CSc1nncs1)N[C@H]1Cc2cccc(C(=O)O)c2OB1O [Compound 7, (R)-3-(2-(1,3,4-thiadiazol-2-ylthio)acetamido)-2-hydroxy-3,4-dihydro-2H-benzo[e][1,2]oxaborinine-8-carboxylic acid] | X (key: X = MIC of less than 1 μg/mL; Y = MIC of 1 μg/mL to 10 μg/mL; Z = MIC of greater than 10 μg/mL) | X (key: X = MIC of less than 1 μg/mL; Y = MIC of 1 μg/mL to 10 μg/mL; Z = MIC of greater than 10 μg/mL) | Y (key: X = MIC of less than 1 μg/mL; Y = MIC of 1 μg/mL to 10 μg/mL; Z = MIC of greater than 10 μg/mL) | Y (Y = MIC of 1 μg/mL to 10 μg/mL) | Y (Y = MIC of 1 μg/mL to 10 μg/mL) | X (X = MIC of less than 1 μg/mL) | < 1 | – | > 800 | > 800 | > 800 | > 800 | > 800 | – | X (key: X = MIC of less than 1 μg/mL; Y = MIC of 1 μg/mL to 10 μg/mL; Z = MIC of greater than 10 μg/mL) | Y (key: X = MIC of less than 1 μg/mL; Y = MIC of 1 μg/mL to 10 μg/mL; Z = MIC of greater than 10 μg/mL) | < 1 | < 1
4 | [N-]=[N+]=NCC(=O)N[C@H]1Cc2cccc(C(=O)O)c2OB1O [Compound 8, (R)-3-(2-azidoacetamido)-2-hydroxy-3,4-dihydro-2H-benzo[e][1,2]oxaborinine-8-carboxylic acid] | X (key: X = MIC of less than 1 μg/mL; Y = MIC of 1 μg/mL to 10 μg/mL; Z = MIC of greater than 10 μg/mL) | X (key: X = MIC of less than 1 μg/mL; Y = MIC of 1 μg/mL to 10 μg/mL; Z = MIC of greater than 10 μg/mL) | Y (key: X = MIC of less than 1 μg/mL; Y = MIC of 1 μg/mL to 10 μg/mL; Z = MIC of greater than 10 μg/mL) | X (X = MIC of less than 1 μg/mL) | Y (Y = MIC of 1 μg/mL to 10 μg/mL) | Y (Y = MIC of 1 μg/mL to 10 μg/mL) | – | < 1 | > 800 | > 800 | > 800 | > 800 | > 800 | > 500 | X (key: X = MIC of less than 1 μg/mL; Y = MIC of 1 μg/mL to 10 μg/mL; Z = MIC of greater than 10 μg/mL) | Y (key: X = MIC of less than 1 μg/mL; Y = MIC of 1 μg/mL to 10 μg/mL; Z = MIC of greater than 10 μg/mL) | – | –
5 | CSC(=O)N[C@H]1Cc2cccc(C(=O)O)c2OB1O [Compound 11, (R)-2-hydroxy-3-(methylthiocarbonylamino)-3,4-dihydro-2H-benzo[e][1,2]oxaborinine-8-carboxylic acid] | Y (key: X = MIC of less than 1 μg/mL; Y = MIC of 1 μg/mL to 10 μg/mL; Z = MIC of greater than 10 μg/mL) | Y (key: X = MIC of less than 1 μg/mL; Y = MIC of 1 μg/mL to 10 μg/mL; Z = MIC of greater than 10 μg/mL) | Y (key: X = MIC of less than 1 μg/mL; Y = MIC of 1 μg/mL to 10 μg/mL; Z = MIC of greater than 10 μg/mL) | Y (Y = MIC of 1 μg/mL to 10 μg/mL) | Y (Y = MIC of 1 μg/mL to 10 μg/mL) | Y (Y = MIC of 1 μg/mL to 10 μg/mL) | < 1 | < 1 | > 800 | > 800 | > 800 | > 800 | > 800 | – | Y (key: X = MIC of less than 1 μg/mL; Y = MIC of 1 μg/mL to 10 μg/mL; Z = MIC of greater than 10 μg/mL) | Z (key: X = MIC of less than 1 μg/mL; Y = MIC of 1 μg/mL to 10 μg/mL; Z = MIC of greater than 10 μg/mL) | – | < 1
